The source of these data is patent US12209085B2, “RET inhibitors, pharmaceutical compositions and uses thereof” (SUNSHINE LAKE PHARMA CO., LTD., priority 2018, dated 2025).

The target of one experiment is Ret wt (Homo sapiens (Human), UniProt P07949). Nature of the experiment: HTRF kinase inhibition assay, Ret wt. In kind it is biochemical. The following applies: HTRF method. An excerpt: (§1) • 1. […] 1) • 18) Echo (Labcyte, 550) • 3.
(§2) [formula] • Ratiopositive control: average of CEP-32496 readings in all positive control wells • Rationegative control: average of DMSO readings in all negative control wells • Wherein, the chemical name of CEP-32496 is: N-[3-[(6,7-dimethoxy-4-quinazolinyl)oxy]phenyl]-N′-[5-(2,2,2-trifluoro-1,1-dimethylethyl)-3-isoxazolyl]urea. • 4.3 Calculation of the IC50 and Drawing of the inhibition curve of the compound: • The IC50 (half inhibitory concentration) of the compound was obtained using the following non-linear fitting formula: Data analysis was performed using Graphpad 6.0 software. Y=Bottom+(Top−Bottom)/(1+10^((Log IC50−X)*Hill Slope)) • X: compound concentration log value Y: inhibition, % • 5.
For orientation: In TR-FRET formats the signal depends on donor and acceptor labels being close together.

A further experiment addresses Ret V804M (Homo sapiens (Human), UniProt P07949, V804M). Kind of experiment: HTRF kinase inhibition assay, Ret V804M. Format: biochemical. The following applies: HTRF method.
Excerpt: as §1, §2

Ret V804M, sequence (P07949 29-1114 V804M): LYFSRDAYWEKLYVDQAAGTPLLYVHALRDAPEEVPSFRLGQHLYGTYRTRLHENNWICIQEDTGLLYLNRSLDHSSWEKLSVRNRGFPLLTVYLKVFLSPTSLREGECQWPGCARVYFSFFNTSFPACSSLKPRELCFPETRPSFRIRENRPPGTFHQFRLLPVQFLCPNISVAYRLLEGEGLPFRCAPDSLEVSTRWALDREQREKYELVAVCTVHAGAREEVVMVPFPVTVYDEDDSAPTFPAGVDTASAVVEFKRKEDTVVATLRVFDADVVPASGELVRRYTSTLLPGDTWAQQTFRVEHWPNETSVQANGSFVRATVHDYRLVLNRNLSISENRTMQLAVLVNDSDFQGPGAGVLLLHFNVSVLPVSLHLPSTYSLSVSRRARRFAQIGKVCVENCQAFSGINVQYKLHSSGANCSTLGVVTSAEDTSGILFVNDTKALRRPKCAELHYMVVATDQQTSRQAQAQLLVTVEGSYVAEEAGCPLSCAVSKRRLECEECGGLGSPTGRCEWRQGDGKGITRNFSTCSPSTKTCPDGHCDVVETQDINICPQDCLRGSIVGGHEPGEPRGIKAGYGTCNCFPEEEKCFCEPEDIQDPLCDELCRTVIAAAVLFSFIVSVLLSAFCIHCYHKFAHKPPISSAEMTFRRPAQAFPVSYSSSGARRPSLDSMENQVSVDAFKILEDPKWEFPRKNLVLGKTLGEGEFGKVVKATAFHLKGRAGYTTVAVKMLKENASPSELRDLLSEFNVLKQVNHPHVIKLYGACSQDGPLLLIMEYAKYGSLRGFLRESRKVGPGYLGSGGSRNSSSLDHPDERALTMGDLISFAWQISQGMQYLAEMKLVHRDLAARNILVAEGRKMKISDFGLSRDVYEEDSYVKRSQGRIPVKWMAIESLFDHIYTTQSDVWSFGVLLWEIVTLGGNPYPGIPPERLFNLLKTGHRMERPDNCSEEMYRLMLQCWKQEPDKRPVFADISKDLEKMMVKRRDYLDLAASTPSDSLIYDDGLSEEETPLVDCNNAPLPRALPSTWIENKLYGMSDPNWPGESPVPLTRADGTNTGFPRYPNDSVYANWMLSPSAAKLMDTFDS
Ret wt, sequence (P07949 29-1114): as the sequence (P07949 29-1114 V804M) above, with M776V counted along it

The term IC50 denotes the concentration that gives 50% inhibition. A higher IC50 goes with weaker potency in that assay. In turn, `C#Cc1ccc(C(=O)NC2(C)CCN(c3ccc(-c4cc(-c5cnn(C)c5)cn5ncc(C#N)c45)cn3)CC2)cc1` [Example 2, N-(1-(5-(3-cyano-6-(1-methyl-1H-pyrazol-4-yl)pyrazolo[1,5-a]pyridin-4-yl)pyridin-2-yl)-4-methyl-piperidin-4-yl)-4-ethynylbenzamide] came in with a concentration for half-maximal inhibition (IC50) against Ret wt of 0.35 nM.
On to `C#CC(=O)N1CCN(c2ccc(-c3cc(-c4cnn(C)c4)cn4ncc(C#N)c34)cn2)CC1` [Example 5], for which the IC50 was 8.2 nM against Ret V804M and 0.39 nM against Ret wt.
For `C#CC(=O)N1C2CC1CN(c1ccc(-c3cc(-c4cnn(C)c4)cn4ncc(C#N)c34)cn1)C2` [Example 31, 6-(1-methyl-1H-pyrazol-4-yl)-4-(6-(6-propioloyl-3,6-diazabicyclo[3.1.1]heptan-3-yl)pyridin-3-yl)pyrazolo[1,5-a]pyridine-3-carbonitrile], in that order: 44.3 nM and 1.95 nM.
For `C#Cc1cncc(CN2C3CC2CN(c2ccc(-c4cc(-c5cnn(C)c5)cn5ncc(C#N)c45)cn2)C3)c1` [Example 187, 4-(6-(6-((5-ethynylpyridin-3-yl)methyl)-3,6-diazabicyclo[3.1.1]heptan-3-yl)pyridin-3-yl)-6-(1-methyl-1H-pyrazol-4-yl)pyrazolo[1,5-a]pyridine-3-carbonitrile], 0.28 nM corresponded to half-maximal inhibition against Ret wt (IC50).
Same read-out and setting: then `C#CCN1C2CC1CN(c1ccc(-c3cc(-c4cnn(C)c4)cn4ncc(C#N)c34)cn1)C2` [Example 195, 6-(1-methyl-1H-pyrazol-4-yl)-4-(6-(6-(prop-2-yn-1-yl)-3,6-diazabicyclo[3.1.1]heptan-3-yl)pyridin-3-yl)pyrazolo[1,5-a]pyridine-3-carbonitrile], with 0.29 nM.
On to `C#Cc1cc(CN2C3CC2CN(c2ccc(-c4cc(-c5cnn(C)c5)cn5ncc(C#N)c45)cn2)C3)ccn1` [Example 217, 4-(6-(6-((2-ethynylpyridin-4-yl)methyl)-3,6-diazabicyclo[3.1.1]heptan-3-yl)pyridin-3-yl)-6-(1-methyl-1H-pyrazol-4-yl)pyrazolo[1,5-a]pyridine-3-carbonitrile], for which, on Ret wt, the IC50 stood at 0.35 nM. This IC50 and that of the compound before are within 1.5-fold of each other.
Same read-out and setting: the result for `C#Cc1cccc(CN2C3CC2CN(c2ccc(-c4cc(-c5cnn(C)c5)cn5ncc(C#N)c45)cn2)C3)c1F` [Example 218, 4-(6-(6-(3-ethynyl-2-fluorobenzyl)-3,6-diazabicyclo[3.1.1]heptan-3-yl)pyridin-3-yl)-6-(1-methyl-1H-pyrazol-4-yl)pyrazolo[1,5-a]pyridine-3-carbonitrile] reads 0.52 nM.
At Ret wt, `C#Cc1cccc(C(C)N2C3CC2CN(c2ccc(-c4cc(-c5cnn(C)c5)cn5ncc(C#N)c45)cn2)C3)n1` (centres unmarked) [Example 219, 4-(6-(6-(1-(6-ethynylpyridin-2-yl)ethyl)-3,6-diazabicyclo[3.1.1]heptan-3-yl)pyridin-3-yl)-6-(1-methyl-1H-pyrazol-4-yl)pyrazolo[1,5-a]pyridine-3-carbonitrile] displayed an IC50 of 2.9 nM.
Still for that read-out and setting: then `C#Cc1cc(CN2C3CC2CN(c2ccc(-c4cc(-c5cnn(C)c5)cn5ncc(C#N)c45)cn2)C3)ccc1F` [Example 220, 4-(6-(3-(3-ethynyl-4-fluorobenzyl)-3,6-diazabicyclo[3.1.1]hept-3-yl)pyridin-3-yl)-6-(1-methyl-1H-pyrazol-4-yl)pyrazolo[1,5-a]pyridine-3-carbonitrile], with 0.22 nM.
As for `C#Cc1cccc(CN2C3CC2CN(c2ccc(-c4cc(-c5cnn(C)c5)cn5ncc(C#N)c45)cn2)C3)n1` [Example 221, 4-(6-(6-((6-ethynylpyridin-2-yl)methyl)-3,6-diazabicyclo[3.1.1]hept-3-yl)pyridin-3-yl)-6-(1-methyl-1H-pyrazol-4-yl)pyrazolo[1,5-a]pyridine-3-carbonitrile], the IC50 on Ret V804M worked out at 12.4 nM; against Ret wt, 0.55 nM.
For `C#Cc1cc(F)c(CN2C3CC2CN(c2ccc(-c4cc(-c5cnn(C)c5)cn5ncc(C#N)c45)cn2)C3)c(F)c1` [Example 222, 4-(6-(6-(4-ethynyl-2,6-difluorobenzyl)-3,6-diazabicyclo[3.1.1]heptan-3-yl)pyridin-3-yl)-6-(1-methyl-1H-pyrazol-4-yl)pyrazolo[1,5-a]pyridine-3-carbonitrile], in that order: 4.35 nM and 0.43 nM.
The like results for `C#Cc1cccc(CN2CCN(c3ccc(-c4cc(-c5cnn(C)c5)cn5ncc(C#N)c45)cn3)CC2)c1F` [Example 224, 4-(6-(4-(3-ethynyl-2-fluorobenzyl)piperazin-1-yl)pyridin-3-yl)-6-(1-methyl-1H-pyrazol-4-yl)pyrazolo[1,5-a]pyridine-3-carbonitrile] were, in that order, 21 nM and 0.57 nM.
For `C#Cc1ccc(CN2CCN(c3ccc(-c4cc(-c5cnn(C)c5)cn5ncc(C#N)c45)cn3)CC2)nc1` [Example 225], in that order: 2.22 nM and 0.39 nM.
For `C#Cc1cccc(C(=O)N2CCC3(CCN(c4ccc(-c5cc(-c6cnn(C)c6)cn6ncc(C#N)c56)cn4)CC3)C2)c1` [Example 229, 4-(6-(2-(3-ethynyl)-2,8-diazaspiro[4.5]dec-8-yl)pyridin-3-yl)-6-(1-methyl-1H-pyrazol-4-yl)pyrazolo[1,5-a]pyridine-3-carbonitrile], half-maximal inhibition on Ret wt (IC50) was put at 25.1 nM.
Same read-out and setting: then `C#Cc1ccc(C(=O)N2C3CC2CN(c2ccc(-c4cc(-c5cnn(C)c5)cn5ncc(C#N)c45)cn2)C3)cc1` [Example 230, 4-(6-(6-(4-ethynyl)-3,6-diazabicyclo[3.1.1]heptan-3-yl)pyridin-3-yl)-6-(1-methyl-1H-pyrazol-4-yl)pyrazolo[1,5-a]pyridine-3-carbonitrile], with 1.05 nM; and `C#Cc1cccc(C(=O)N2C3CC2CN(c2ccc(-c4cc(-c5cnn(C)c5)cn5ncc(C#N)c45)cn2)C3)c1` [Example 231, 4-(6-(6-(3-ethynyl)-3,6-diazabicyclo[3.1.1]heptan-3-yl)pyridin-3-yl)-6-(1-methyl-1H-pyrazol-4-yl)pyrazolo[1,5-a]pyridine-3-carbonitrile], with 3.75 nM.
Consider `C#Cc1ccc(C(=O)N2C3CC2CN(c2ccc(-c4cc(-c5cnn(C)c5)cn5ncc(C#N)c45)cn2)C3)cc1F` [Example 232, 4-(6-(6-(4-ethynyl-3-fluorobenzoyl)-3,6-diazabicyclo[3.1.1]heptan-3-yl)pyridin-3-yl)-6-(1-methyl-1H-pyrazol-4-yl)pyrazolo[1,5-a]pyridine-3-carbonitrile], for which the IC50 at Ret V804M was determined as 1.79 nM; on Ret wt it was 0.37 nM.
For `C#Cc1cc(C(=O)N2C3CC2CN(c2ccc(-c4cc(-c5cnn(C)c5)cn5ncc(C#N)c45)cn2)C3)ccc1F` [Example 233, 4-(6-(6-(3-ethynyl-4-fluorobenzoyl)-3,6-diazabicyclo[3.1.1]heptan-3-yl)pyridin-3-yl)-6-(1-methyl-1H-pyrazol-4-yl)pyrazolo[1,5-a]pyridine-3-carbonitrile], the IC50 at Ret V804M is 8.92 nM; against Ret wt, 0.5 nM.
As for `C#Cc1cc(F)c(C(=O)N2CCN(c3ccc(-c4cc(-c5cnn(C)c5)cn5ncc(C#N)c45)cn3)CC2)c(F)c1` [Example 234, 4-(6-(4-(4-ethynyl-2,6-difluorobenzoyl)piperazin-1-yl)pyridin-3-yl)-6-(1-methyl-1H-pyrazol-4-yl)pyrazolo[1,5-a]pyridine-3-carbonitrile], the values for the IC50 against Ret V804M and at Ret wt were 62.3 nM and 4 nM, respectively.
For `C#Cc1cc(F)c(C(=O)N2C3CC2CN(c2ccc(-c4cc(-c5cnn(C)c5)cn5ncc(C#N)c45)cn2)C3)c(F)c1` [Example 235], in that order: 10 nM and 0.4 nM.
For `C#Cc1ccc(C(=O)N2CCN(c3ccc(-c4cc(-c5cnn(C)c5)cn5ncc(C#N)c45)cn3)CC2)cc1F` [Example 236, 4-(6-(4-(4-ethynyl-3-fluorobenzoyl)piperazin-1-yl)pyridin-3-yl)-6-(1-methyl-1H-pyrazol-4-yl)pyrazolo[1,5-a]pyridine-3-carbonitrile], in that order: 19.7 nM and 1.57 nM.
The like results for `C#Cc1ccc(C(=O)N2CCN(c3ccc(-c4cc(-c5cnn(C)c5)cn5ncc(C#N)c45)cn3)CC2)nc1` [Example 237, 4-(6-(4-(5-ethynylpicolinoyl)piperazin-1-yl)pyridin-3-yl)-6-(1-methyl-1H-pyrazol-4-yl)pyrazolo[1,5-a]pyridine-3-carbonitrile] were, in that order, 2.06 nM and 0.39 nM.
Turning to `C#Cc1ccc(C(=O)N2C3CC2CN(c2ccc(-c4cc(-c5cnn(C)c5)cn5ncc(C#N)c45)cn2)C3)nc1` [Example 238, 4-(6-(6-(5-ethynylpicolinoyl)-3,6-diazabicyclo[3.1.1]heptan-3-yl)pyridin-3-yl)-6-(1-methyl-1H-pyrazol-4-yl)pyrazolo[1,5-a]pyridine-3-carbonitrile], the IC50 on Ret V804M worked out at 2.75 nM; on Ret wt, 0.3 nM.
Take `Cn1cc(-c2cc(-c3ccc(N4CC5CC(C4)N5CC#Cc4ccc(C(F)(F)F)cc4)nc3)c3c(C#N)cnn3c2)cn1` [Example 242, 6-(1-methyl-1H-pyrazol-4-yl)-4-(6-(6-(3-(4-(trifluoromethyl)phenyl)prop-2-yn-1-yl)-3,6-diazabicyclo[3.1.1]heptan-3-yl)pyridin-3-yl)pyrazolo[1,5-a]pyridine-3-carbonitrile]: the half-inhibitory concentration (IC50) on Ret wt was found to be 1.72 nM.
At Ret wt, `Cn1cc(-c2cc(-c3ccc(N4CC5(CCN(C(=O)C#Cc6ccccc6)CC5)C4)nc3)c3c(C#N)cnn3c2)cn1` [Example 269, 6-(1-methyl-1H-pyrazol-4-yl)-4-(6-(7-(3-phenylpropioloyl)-2,7-diazaspiro[3.5]nonan-2-yl)pyridin-3-yl)pyrazolo[1,5-a]pyridine-3-carbonitrile] showed an IC50 of 27 nM.
